Tests used:
[1] = Hygroscopicity study (dynamic vapor sorption); type: physicochemical; details: 25° C., 0%-90%-0% RH
Protocol: Example 7: Hygroscopicity Study of Crystalline Form B of Compound of Formula (I)
Instrument model: SMS DVS Advantage
Test conditions: the sample (10-20 mg, the crystalline form B prepared in Example 3) was placed in DVS sample tray for testing.
Balancing: dm/dt=0.01%/min (shortest: 10 min, longest: 180 min)
Drying: drying at 0% RH for 120 min
RH (%) test gradient: 10%

[2] = Solid stability testing of crystalline form B (HPLC); type: physicochemical
Protocol: Example 6: Stability Study of Solid Crystalline Form B of the Compound of Formula (I) High Performance Liquid Chromatography (HPLC)
The chromatographic conditions of the HPLC method are seen in table below: Chromatographic column: Zorbax SB C-18, 4.6 mm×150 mm, 5 μm (PDS-HPLC-007)
Mobile phase A: 0.1% TFA in water
Preparation of sample: the sample was dissolved in a mixed solvent of acetonitrile and water (acetonitrile:water=50:50 (v/v))
The stability of the compound in the following conditions was examined, and samples were taken at different time points to detect the content. About 5 mg of the crystalline form B of the compound of formula (I) was accurately weighted in duplicate, transferred to a dry and clean glass bottle, spread into a thin layer as test samples, and placed in experimental conditions of influential factors ((60° C.), (relative humidity 92.5%), illumination (total illumination of 1.2×106 Lux·hr/near UV energy of 200 w·hr/m2), (40° C., relative humidity 75%), or (60° C., relative humidity 75%)). The samples were covered with aluminum foils having holes, and thus completely exposed to the conditions. Sampling analysis was performed at 5 days, 10 days, 1 month, 2 months and 3 months. The samples were completely exposed to illumination (visible light of 1200000 Lux, UV of 200 W) at room temperature.

[3] = test system: cigarette smoke-induced rat acute lung injury model; test: Pharmacodynamic study in cigarette smoke-induced rat acute lung injury model; type: in vivo, Sprague-Dawley rats; details: atomization 0.05 and 0.15 mg/ml, 30 min daily
Protocol: Experimental Example 5: Pharmacodynamic Study in Cigarette Smoke-Induced Rat Acute Lung Injury Model
Male Sprague-Dawley rats (supplied by Shanghai SLAC Laboratory Animal Co., Ltd.), SPF grade, approximately 200 g.
1. Animals were randomly divided into 6 groups according to body weight after arrival and a one-week acclimation;
2. On days 1-3 of the experiment, the corresponding compound of each group was atomized for 30 min. The animals in the model group and the treatment groups were exposed to cigarette smoke for 1 h, and after a 4-h interval, the animals were exposed to cigarette smoke again for 1 h. Cigarette smoke was given twice daily for 3 consecutive days. The control group animals were exposed to room air;
3. On day 4 of the experiment, the corresponding compound of each group was atomized for 30 min, and then the animals in the model group and the treatment groups were given the atomized 150 ng/mL LPS for 15 min by inhalation. After 3 h (from the time starting atomization), the animals were exposed to cigarette smoke for 1 h, and then the lung function (Penh and F) of the animals was examined; bronchoalveolar lavage fluid was collected for cell counting after the animals were euthanized with CO2. […]

[4] = Pharmacokinetic study in beagle dogs; type: in vivo
Protocol: Experimental Example 3: Pharmacokinetic Study in Beagle Dogs
In this study, male beagle dogs were selected as test animals, and LC-MS/MS was used for quantitatively measuring the drug concentration in plasma of beagle dogs at different time points after intravenous injection or intragastric administration of the compound of formula (I) so as to evaluate the pharmacokinetics of the compound of formula (I) in beagle dogs.
The clear solution of the compound of formula (I) was injected into two beagle dogs of 10-12 kg via the cephalic vein or saphenous vein, and the clear solution of the compound of formula (I) was administered intragastrically to two beagle dogs of 10-12 kg (fasted overnight). The animals were all subjected to a blood collection of approximately 500 μL each time from peripheral veins at 0.0333, 0.0833, 0.25, 0.5, 1, 2, 4, 6, 8 and 24 h post-dose, and the blood was transferred into commercial centrifuge tubes containing 0.85-1.15 mg of K2 EDTA.2H2O anticoagulant, and plasma was separated by centrifugation at 3000 g for 10 min at 4° C. The plasma concentration was measured by LC-MS/MS, and the relevant pharmacokinetic parameters were calculated using pharmacokinetic software WinNonlin™ Version 6.3 (Pharsight, Mountain View, Calif.) using non-compartmental model linear-log trapezoidal method.

PDE4 = details: cited from earlier work
[5] = cited from earlier work
[6] = in vivo; cited from earlier work
[7] = intragastric administration 3 mg/kg
[8] = intravenous injection 0.5 mg/kg

Which “Hygroscopicity (DVS, in words)” value [1] does the source give for CCOc1cc2c(cc1OC)-c1c/c(=N\c3c(C)cc(C)cc3C)n(CCNC(=O)c3c(O)nnn3C)c(=O)n1CC2 here?
The value was “low hygroscopicity”.

And the Total impurities % ([2]; 40° C.-75% RH-1 month)?
Its Total impurities % is 0.10%.

And the Total impurities % ([2]; 40° C.-75% RH-2 months)?
Its Total impurities % is 0.08%.

What about the Total impurities % ([2]; 40° C.-75% RH-3 months) of the same molecule?
Its Total impurities % is 0.09%.

And the Total impurities % ([2]; 40° C.-75% RH-10 days)?
Its Total impurities % is 0.10%.

What about the Total impurities % ([2]; 60° C.-75% RH-1 month) of the same molecule?
The Total impurities % was 0.10%.

And the Total impurities % ([2]; 60° C.-75% RH-10 days)?
The Total impurities % was 0.10%.

And the Total impurities % ([2]; 60° C.-5 days)?
The Total impurities % was 0.10%.

And the Total impurities % ([2]; 60° C.-10 days)?
Its Total impurities % is 0.11%.

What about the Total impurities % ([2]; 92.5% RH-5 days) of the same molecule?
Its Total impurities % is 0.11%.

And the Total impurities % ([2]; 92.5% RH-10 days)?
The Total impurities % was 0.10%.

What about the Total impurities % ([2]; Day 0) of the same molecule?
The Total impurities % was 0.11%.

What about the Total impurities % ([2]; Illumination (1.2×106 Lux·hr, near UV 200 w·hr/m2)) of the same molecule?
Its Total impurities % is 0.10%.

What about the Total impurities % ([2]; In the dark) of the same molecule?
Its Total impurities % is 0.11%.

What about the “Solid stability (in words)” value ([2]; high temperature, high humidity or illumination) of the same molecule?
The value was “good stability”.

With CCOc1cc2c(cc1OC)-c1c/c(=N\c3c(C)cc(C)cc3C)n(CCNC(=O)c3c(O)nnn3C)c(=O)n1CC2 [Compound of formula (I)] as the molecule, how does the “Airway resistance index Penh (Mch challenge)” value [3] read?
Its value is “reduce”.

And the “Total number of white blood cells in BALF” value [3]?
Its value is “reduce”.

What about the “Area under plasma concentration-time curve (0-inf)” value [4, 7] of the same molecule?
Its value is 0.123 µM·h.

What about the Peak concentration [4, 7] of the same molecule?
The Peak concentration was 59.4 nM.

And the Time to peak [4, 7]?
Its Time to peak is 0.6 h.

What about the “Area under plasma concentration-time curve (0-inf)” value [4, 8] of the same molecule?
Its value is 0.21 µM·h.

And the Half-life [4, 8]?
Its Half-life is 18 min.

What about the Plasma clearance [4, 8] of the same molecule?
Its Plasma clearance is 70.3 mL/min/kg.

What about the bioavailability ([4]; male, dog, plasma, po, intragastric administration 3 mg/kg) of the same molecule?
The bioavailability was 7.5%.

With COc1cc2c(cc1OC)-c1c/c(=N\c3c(C)cc(C)cc3C)n(CCNC(N)=O)c(=O)n1CC2 [RPL554] as the molecule, how does the “PDE4 inhibitory activity (in words)” value (PDE4) read?
Its value is “unsatisfactory”.

And the “Solubility (in words)” value [5]?
The value was “poor solubility”.

And the “Plasma clearance (in words)” value [6]?
The value was “high plasma clearance”.

Which “PDE4 inhibitory activity (in words)” value (PDE4) does the source give for COc1cc2c(cc1OC)-c1cc(Oc3c(C(C)C)cccc3C(C)C)nc(=O)n1CC2 [RPL565] here?
Its value is “unsatisfactory”.

What about the “Solubility (in words)” value [5] of the same molecule?
Its value is “poor solubility”.

What about the “Plasma clearance (in words)” value [6] of the same molecule?
Its value is “high plasma clearance”.

Source: patent US20230115817A1, “CRYSTAL OF PDE3/PDE4 DUAL INHIBITOR AND USE THEREOF” (Chia Tai Tianqing Pharmaceutical Group Co., Ltd., priority 2020, published 2023)
